Source: patent US10150760B2, “Compounds for use in preparing heterocyclic triazole agonists of the APJ receptor” (AMGEN INC., priority 2016, dated 2018)

What follows are compounds tested against human APJ receptor (Homo sapiens (Human), UniProt P35414) (assay: [35S]GTPγS binding assay on membranes from CHO cells stably expressing human APJ receptor). Conditions: read-out: Activity hAPJ SPA EC50 IP.
Assay type: biochemical
Summary of the method: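 Agonist-driven [35S]GTPγS (0.2 nM) binding was measured over 90 min at room temperature on human APJ-expressing CHO membranes with bead capture, in buffer containing 3 μM GDP, 200 mM NaCl and 5 mM MgCl2 (pH 7.5). Excess unlabelled GTPγS (100 μM) gave nonspecific signal; EC50 from non-linear fits.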

Chain of human APJ receptor (P35414 whole entry): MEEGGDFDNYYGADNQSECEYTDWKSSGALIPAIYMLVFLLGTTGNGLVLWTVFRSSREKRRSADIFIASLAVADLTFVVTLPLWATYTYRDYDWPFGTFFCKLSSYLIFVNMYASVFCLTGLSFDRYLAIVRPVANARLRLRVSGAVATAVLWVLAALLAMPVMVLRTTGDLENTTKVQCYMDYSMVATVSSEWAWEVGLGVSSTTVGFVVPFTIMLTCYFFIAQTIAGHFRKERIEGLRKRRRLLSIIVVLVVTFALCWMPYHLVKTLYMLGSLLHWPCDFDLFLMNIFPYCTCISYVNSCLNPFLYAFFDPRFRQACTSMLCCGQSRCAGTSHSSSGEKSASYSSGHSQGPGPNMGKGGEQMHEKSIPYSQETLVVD

Row | Structure (SMILES) | EC50 [nM]
1 | COc1cccc(OC)c1-n1c(NS(=O)(=O)[C@@H](C)[C@H](OC)c2ncc(Cl)cn2)nnc1[C@H]1CCO[C@@H]1C (single isomer, unassigned) [Example 114.0, (1R,2S)-1-(5-chloropyrimidin-2-yl)-N-(4-(2,6-dimethoxyphenyl)-5-((2R,3R)-2-methyltetrahydrofuran-3-yl)-4H-1,2,4-triazol-3-yl)-1-methoxypropane-2-sulfonamide or (1R,2S)-1-(5-chloropyrimidin-2-yl)-N-(4-(2,6-dimethoxyphenyl)-5-((2S,3S)-2-methyltetrahydrofuran-3-yl)-4H-1,2,4-triazol-3-yl)-1-methoxypropane-2-sulfonamide] | 110
2 | COc1cccc(OC)c1-n1c(NS(=O)(=O)[C@@H](C)[C@H](OC)c2ncc(Cl)cn2)nnc1[C@H]1CCO[C@@H]1C (single isomer, unassigned) [Example 115.0, (1R,2S)-1-(5-chloropyrimidin-2-yl)-N-(4-(2,6-dimethoxyphenyl)-5-((2R,3S)-2-methyltetrahydrofuran-3-yl)-4H-1,2,4-triazol-3-yl)-1-methoxypropane-2-sulfonamide or (1R,2S)-1-(5-chloropyrimidin-2-yl)-N-(4-(2,6-dimethoxyphenyl)-5-((2S,3R)-2-methyltetrahydrofuran-3-yl)-4H-1,2,4-triazol-3-yl)-1-methoxypropane-2-sulfonamide] | 210
3 | COc1cccc(OC)c1-n1c(NS(=O)(=O)[C@@H](C)[C@H](OC)c2ncc(Cl)cn2)nnc1[C@H]1CCO[C@H]1C (single isomer, unassigned) [Example 116.0, (1R,2S)-1-(5-chloropyrimidin-2-yl)-N-(4-(2,6-dimethoxyphenyl)-5-((2R,3S)-2-methyltetrahydrofuran-3-yl)-4H-1,2,4-triazol-3-yl)-1-methoxypropane-2-sulfonamide or (1R,2S)-1-(5-chloropyrimidin-2-yl)-N-(4-(2,6-dimethoxyphenyl)-5-((2S,3R)-2-methyltetrahydrofuran-3-yl)-4H-1,2,4-triazol-3-yl)-1-methoxypropane-2-sulfonamide] | 190
4 | COc1cccc(OC)c1-n1c(NS(=O)(=O)[C@@H](C)[C@H](C)c2ncc(Cl)cn2)nnc1[C@H]1CCO[C@@H]1C (single isomer, unassigned) [Example 117.0, (2S,3R)-3-(5-chloropyrimidin-2-yl)-N-(4-(2,6-dimethoxyphenyl)-5-((2R,3R)-2-methyltetrahydrofuran-3-yl)-4H-1,2,4-triazol-3-yl)butane-2-sulfonamide or (2S,3R)-3-(5-chloropyrimidin-2-yl)-N-(4-(2,6-dimethoxyphenyl)-5-((2S,3S)-2-methyltetrahydrofuran-3-yl)-4H-1,2,4-triazol-3-yl)butane-2-sulfonamide] | 49
5 | COc1cccc(OC)c1-n1c(NS(=O)(=O)[C@@H](C)[C@H](C)c2ncc(Cl)cn2)nnc1[C@@H]1CCO[C@@H]1C (single isomer, unassigned) [Example 118.0, (2S,3R)-3-(5-chloropyrimidin-2-yl)-N-(4-(2,6-dimethoxyphenyl)-5-((2R,3S)-2-methyltetrahydrofuran-3-yl)-4H-1,2,4-triazol-3-yl)butane-2-sulfonamide or (2S,3R)-3-(5-chloropyrimidin-2-yl)-N-(4-(2,6-dimethoxyphenyl)-5-((2S,3R)-2-methyltetrahydrofuran-3-yl)-4H-1,2,4-triazol-3-yl)butane-2-sulfonamide] | 270
6 | COc1cccc(OC)c1-n1c(NS(=O)(=O)[C@@H](C)[C@H](C)c2ncc(Cl)cn2)nnc1[C@@H]1CCO[C@@H]1C (single isomer, unassigned) [Example 119.0, (2S,3R)-3-(5-chloropyrimidin-2-yl)-N-(4-(2,6-dimethoxyphenyl)-5-((2R,3S)-2-methyltetrahydrofuran-3-yl)-4H-1,2,4-triazol-3-yl)butane-2-sulfonamide or (2S,3R)-3-(5-chloropyrimidin-2-yl)-N-(4-(2,6-dimethoxyphenyl)-5-((2S,3R)-2-methyltetrahydrofuran-3-yl)-4H-1,2,4-triazol-3-yl)butane-2-sulfonamide] | 160
7 | COc1cccc(OC)c1-n1c(NS(=O)(=O)[C@@H](C)[C@H](C)c2ncc(C)cn2)nnc1[C@H]1CCO[C@@H]1C (single isomer, unassigned) [Example 120.0, (2S,3R)-N-(4-(2,6-dimethoxyphenyl)-5-((2S,3S)-2-methyltetrahydrofuran-3-yl)-4H-1,2,4-triazol-3-yl)-3-(5-methylpyrimidin-2-yl)butane-2-sulfonamide or (2S,3R)-N-(4-(2,6-dimethoxyphenyl)-5-((2R,3R)-2-methyltetrahydrofuran-3-yl)-4H-1,2,4-triazol-3-yl)-3-(5-methylpyrimidin-2-yl)butane-2-sulfonamide] | 270
8 | COc1cccc(OC)c1-n1c(NS(=O)(=O)[C@@H](C)[C@H](C)c2ncc(C)cn2)nnc1[C@@H]1CCO[C@@H]1C (single isomer, unassigned) [Example 121.0, (2S,3R)-N-(4-(2,6-dimethoxyphenyl)-5-((2R,3S)-2-methyltetrahydrofuran-3-yl)-4H-1,2,4-triazol-3-yl)-3-(5-methylpyrimidin-2-yl)butane-2-sulfonamide or (2S,3R)-N-(4-(2,6-dimethoxyphenyl)-5-((2S,3R)-2-methyltetrahydrofuran-3-yl)-4H-1,2,4-triazol-3-yl)-3-(5-methylpyrimidin-2-yl)butane-2-sulfonamide] | 880
9 | COc1cccc(OC)c1-n1c(NS(=O)(=O)[C@@H](C)[C@H](C)c2ncc(C)cn2)nnc1[C@H]1CCO[C@@H]1C (single isomer, unassigned) [Example 122.0, (2S,3R)-N-(4-(2,6-dimethoxyphenyl)-5-((2S,3S)-2-methyltetrahydrofuran-3-yl)-4H-1,2,4-triazol-3-yl)-3-(5-methylpyrimidin-2-yl)butane-2-sulfonamide or (2S,3R)-N-(4-(2,6-dimethoxyphenyl)-5-((2R,3R)-2-methyltetrahydrofuran-3-yl)-4H-1,2,4-triazol-3-yl)-3-(5-methylpyrimidin-2-yl)butane-2-sulfonamide] | 930
10 | COc1cccc(OC)c1-n1c(NS(=O)(=O)[C@@H](C)[C@H](C)c2ncc(C)cn2)nnc1[C@@H]1CCO[C@@H]1C (single isomer, unassigned) [Example 123.0, (2S,3R)-N-(4-(2,6-dimethoxyphenyl)-5-((2R,3S)-2-methyltetrahydrofuran-3-yl)-4H-1,2,4-triazol-3-yl)-3-(5-methylpyrimidin-2-yl)butane-2-sulfonamide or (2S,3R)-N-(4-(2,6-dimethoxyphenyl)-5-((2S,3R)-2-methyltetrahydrofuran-3-yl)-4H-1,2,4-triazol-3-yl)-3-(5-methylpyrimidin-2-yl)butane-2-sulfonamide] | 700
11 | CO[C@H](c1ncc(Cl)cn1)[C@H](C)S(=O)(=O)Nc1nnc([C@H]2CCOC2)n1C1(C)CC1 (single isomer, unassigned) [Example 124.0, (1R,2S)-1-(5-chloropyrimidin-2-yl)-1-methoxy-N-(4-(1-methylcyclopropyl)-5-((R)-tetrahydrofuran-3-yl)-4H-1,2,4-triazol-3-yl)propane-2-sulfonamide or (1R,2S)-1-(5-chloropyrimidin-2-yl)-1-methoxy-N-(4-(1-methylcyclopropyl)-5-((S)-tetrahydrofuran-3-yl)-4H-1,2,4-triazol-3-yl)propane-2-sulfonamide] | 440
12 | CO[C@H](c1ncc(Cl)cn1)[C@H](C)S(=O)(=O)Nc1nnc([C@H]2CCOC2)n1C1(C)CC1 (single isomer, unassigned) [Example 125.0, (1R,2S)-1-(5-chloropyrimidin-2-yl)-1-methoxy-N-(4-(1-methylcyclopropyl)-5-((R)-tetrahydrofuran-3-yl)-4H-1,2,4-triazol-3-yl)propane-2-sulfonamide or (1R,2S)-1-(5-chloropyrimidin-2-yl)-1-methoxy-N-(4-(1-methylcyclopropyl)-5-((S)-tetrahydrofuran-3-yl)-4H-1,2,4-triazol-3-yl)propane-2-sulfonamide] | 540
13 | CO[C@H](c1ncc(Cl)cn1)[C@H](C)S(=O)(=O)Nc1nnc([C@H]2CCCOC2)n1C1(C)CC1 (single isomer, unassigned) [Example 126.0, (1R,2S)-1-(5-chloropyrimidin-2-yl)-1-methoxy-N-(4-(1-methylcyclopropyl)-5-((R)-tetrahydro-2H-pyran-3-yl)-4H-1,2,4-triazol-3-yl)propane-2-sulfonamide or (1R,2S)-1-(5-chloropyrimidin-2-yl)-1-methoxy-N-(4-(1-methylcyclopropyl)-5-((S)-tetrahydro-2H-pyran-3-yl)-4H-1,2,4-triazol-3-yl)propane-2-sulfonamide] | 480
14 | CO[C@H](c1ncc(Cl)cn1)[C@H](C)S(=O)(=O)Nc1nnc([C@H]2CCCOC2)n1C1(C)CC1 (single isomer, unassigned) [Example 127.0, (1R,2S)-1-(5-chloropyrimidin-2-yl)-1-methoxy-N-(4-(1-methylcyclopropyl)-5-((R)-tetrahydro-2H-pyran-3-yl)-4H-1,2,4-triazol-3-yl)propane-2-sulfonamide or (1R,2S)-1-(5-chloropyrimidin-2-yl)-1-methoxy-N-(4-(1-methylcyclopropyl)-5-((S)-tetrahydro-2H-pyran-3-yl)-4H-1,2,4-triazol-3-yl)propane-2-sulfonamide] | 7.7
15 | CO[C@H](c1cnc(C)cn1)[C@H](C)S(=O)(=O)Nc1nnc([C@H]2CCOC2)n1C1(C)CC1 (single isomer, unassigned) [Example 128.0, (1R,2S)-1-methoxy-N-(4-(1-methylcyclopropyl)-5-((R)-tetrahydrofuran-3-yl)-4H-1,2,4-triazol-3-yl)-1-(5-methylpyrazin-2-yl)propane-2-sulfonamide or (1R,2S)-1-methoxy-N-(4-(1-methylcyclopropyl)-5-((S)-tetrahydrofuran-3-yl)-4H-1,2,4-triazol-3-yl)-1-(5-methylpyrazin-2-yl)propane-2-sulfonamide] | 790
